Values after ≈ are worked out from the molar mass of the structure shown. Like-named read-outs stand apart in the source and are kept apart here.
Legend:
[1] = tested on: Borreliella spp.; assay: MIC by broth microdilution against Borreliella isolates; assay type: cell-based; conditions: range over 6 isolates (5 B. burgdorferi, 1 B. garinii)
Protocol: Minimal inhibitory concentrations (MIC) were determined against five (n=5) Borreliella burgdorferi isolates (ATCC 51990, 55131, 35211, 35210, 53899) and one (n=1) Borreliella garinii isolate (ATCC 51991) by broth microdilution technique (Dever, L. L., Jorgensen, J. H., Barbour, A. G. In vitro antimicrobial susceptibility testing of Boreliella burgdorferi: a microdilution MIC method and time-kill studies. J Clin Microbiol. 30(10), 2692-2697. (1992) doi: 10.1128/jcm.30.10.2692-2697.1992; Feng, J., Wang, T., Shi, W., et al. Identification of novel activity against Boreliella burgdorferi persisters using an FDA approved drug library. Emerg Microb Infect 3, e49 (2014) doi: 10.1038/emi.2014.53). The general procedures for broth microdilution were done according to the CLSI guidelines M7 and M100-S31 (CLSI. (2018) Methods for dilution antimicrobial susceptibility tests for bacteria that grow aerobically; Eleventh edition. M07.; CLSI. (2021) Performance Standards for Antimicrobial Susceptibility Testing; Thirty-first Edition. M100-S31).
Briefly, Borreliella spp. were grown at 36° C. under microaerophilic conditions in BSK II medium until the logarithmic or stationary growth phase was reached. The growth phase was determined by semiquantitative measurement of active and dormant cells by fluorescence microscopy of cells stained with the fluorescent dyes SYBR Green I and propidium iodide. An inoculum of 10^5−10^6 spirochetes/mL was used to inoculate broth microdilution plates containing serially 2-fold diluted test compounds.

[2] = tested on: T. pallidum cells (Chicago strain); assay: Rabbit model of intradermal Treponema pallidum infection (syphilis); assay type: in vivo
Protocol: The preclinical study to test Lefamulin against T. pallidum was conducted in analogy to an investigation of the antibiotic compound linezolid (Haynes, A. M., Giacani, L., Vall Mayans, M., et al. Efficacy of linezolid on Treponema pallidum, the syphilis agent: A preclinical study. eBioMedicine 65, 103281 (2021). doi: 10.1016/j.ebiom.2021.103281).
In the syphilis infection model, each animal was infected intradermally (ID) with 10^6 freshly harvested, viable and infectious T. pallidum cells (Chicago strain) per site of infection on 10 sites on their shaved backs to induce appearance of primary syphilis lesions. Treponemal viability prior to ID infection was assessed by dark field microscopy (DFM). A dose of infectious treponemes (10^6/site of infection) induces the appearance of an erythematous lesion at the inoculation site within ˜5 days post-inoculation. Overall, the arch of lesion progression from the erythematous stage to the indurated, ulcerated, and healed stages encompasses approximately 4 weeks.
Herein, three groups of three rabbits were infected. Three animals were treated orally with 70 mg/kg Lefamulin every 12 h for 3 days (day 7 to day 10 post-infection). As positive control group, another three animals were treated with Benzathine penicillin G (BPG) as single intramuscular (IM) injection (300,000 units; equivalent w/w to 4.8 million units for humans). One group (n=3) served as untreated control. The cutaneous lesions were monitored macroscopically for clinical development, documented by photography on regular basis and measured for their diameter every day for a period of 40 days.
Treponemal burden within these lesions was assessed by taking needle aspirates from the lesions and analyzing the aspirates for pathogen cell count using DFM as well as quantification of treponemal DNA extracted from the aspirates at day 3, 8, 12, and 16 Additionally, mRNA extracted from lesion biopsies obtained post-treatment initiation was also quantified as a surrogate of viability. The gene copy number of the T. pallidum tp0574 gene was quantified by qPCR. Additionally, the tp0574 gene message was normalized to the message of the rabbit housekeeping gene HPRT to evaluate the burden of viable T. pallidum cells within lesion biopsies.

[3] = tested on: T. pallidum; assay: Rabbit infectivity test (RIT) with popliteal lymph nodes; assay type: in vivo
Text: The test rabbits from Example 3 were used for a subsequent study in a RIT, wherein samples from the popliteal lymph nodes were transferred to new (naïve) rabbits, which were subsequently analyzed for disease symptoms and tested serologically (Haynes, A. M., Giacani, L., Vall Mayans, M., et al. Efficacy of linezolid on Treponema pallidum, the syphilis agent: A preclinical study. eBioMedicine 65, 103281 (2021). Doi: 10.1016/j.ebiom.2021.103281).
Following euthanasia, popliteal lymph nodes (LN) from all the rabbits in the Lefamulin, BPG, and control groups were harvested. Lymph nodes from each rabbit were pooled and homogenized in a solution containing equal amounts of sterile saline and serum from an uninfected rabbit. One milliliter of homogenate from each test rabbit was then inoculated into the left testicle of a naïve rabbit to perform the RIT. For the rabbit, which died at day 3 post-treatment initiation, lymph nodes were harvested and transferred to a RIT rabbit within 1 hour after the animal's death.
Inoculated animals were checked for orchitis twice weekly. Serum was collected monthly for three months and analyzed with two different serological tests, i.e. VDRL (Venereal Disease Research Laboratory; Becton-Dickinson, Franklin Lanes, NJ) and TPPA (Treponema pallidum Particle Agglutination; Fujirebio, Malvern, PA). Also an FTA-ABS test (Fluorescent Treponemal Antibody-Absorption; Trinity Biotech, Jamestown, NY) was performed.

[4] = 192 h, stationary growth phase cultures, read after 8 days, read-out: MIC (μg/mL) for Stationary Growth Phase Culture (n = 6)
[5] = logarithmic growth phase cultures, read after 5 or 6 days, read-out: MIC (μg/mL) for Logarithmic Growth Phase Culture (n = 6)

| Structure (SMILES) | MIC [1, 4] | MIC [1, 5] | other results |
| --- | --- | --- | --- |
| CC1(C)S[C@@H]2[C@H](NC(=O)[C@H](N)c3ccc(O)cc3)C(=O)N2[C@H]1C(=O)O [Amoxicillin] | 0.03 to 0.12 µg/mL (≈ 0.0821 to 0.328 µM) | 0.03 to 0.12 µg/mL (≈ 0.0821 to 0.328 µM) |  |
| CC1(C)S[C@@H]2[C@H](NC(=O)Cc3ccccc3)C(=O)N2[C@H]1C(=O)O.CC1(C)S[C@@H]2[C@H](NC(=O)Cc3ccccc3)C(=O)N2[C@H]1C(=O)O.c1ccc(CNCCNCc2ccccc2)cc1 [BPG, Benzathine penicillin G] |  |  | lesion progression past the initial state of mild induration ([2]; 40 days observation): None of the lesions in these two groups progressed past the initial state of mild induration; T. pallidum mRNA (tp0574 message normalized to HPRT) in lesion biopsies ([2]; day 3 post-treatment initiation): absent; measured sites resolved ([2]; day 9 post-BPG administration): 95%; measured sites resolved ([2]; day 12 post-treatment): 100%; T. pallidum cells in lesion aspirates by DFM ([2]; since day 3 post-treatment initiation): no treponemal bacteria could be found; orchitis or seroconversion (VDRL, TPPA) of RIT rabbits ([3]; 3-months observation period, lymph nodes from treated test rabbits): None of the animals developed orchitis or seroconverted; seroconversion in FTA-ABS test ([3]; RIT rabbits, control animals 3+ reactivity or higher): none of the BGP or Lefamulin treated animals seroconverted |
| CO/N=C(\C(=O)N[C@@H]1C(=O)N2C(C(=O)O)=C(CSc3nc(=O)c(=O)[nH]n3C)CS[C@H]12)c1csc(N)n1 [Ceftriaxone] | 0.004 to 0.03 µg/mL (≈ 0.00721 to 0.0541 µM) | 0.004 to 0.016 µg/mL (≈ 0.00721 to 0.0289 µM) |  |

Further lines, with some results ahead:

| MIC [1, 4] | MIC [1, 5] | Structure (SMILES) | other results |
| --- | --- | --- | --- |
| 0.001 to 0.004 µg/mL (≈ 0.00134 to 0.00534 µM) | 0.001 to 0.004 µg/mL (≈ 0.00134 to 0.00534 µM) | CC[C@H]1OC(=O)[C@H](C)[C@@H](O[C@H]2C[C@@](C)(OC)[C@@H](O)[C@H](C)O2)[C@H](C)[C@@H](O[C@@H]2O[C@H](C)C[C@H](N(C)C)[C@H]2O)[C@](C)(O)C[C@@H](C)CN(C)[C@H](C)[C@@H](O)[C@]1(C)O [Azithromycin] |  |
| 0.016 to 0.25 µg/mL (≈ 0.0377 to 0.589 µM) | 0.016 to 0.25 µg/mL (≈ 0.0377 to 0.589 µM) | CO/N=C(\C(=O)N[C@@H]1C(=O)N2C(C(=O)O)=C(COC(N)=O)CS[C@H]12)c1ccco1 [Cefuroxime] |  |
| 0.03 to 0.5 µg/mL (≈ 0.0675 to 1.13 µM) | 0.03 to 0.5 µg/mL (≈ 0.0675 to 1.13 µM) | C[C@H]1c2cccc(O)c2C(=O)C2=C(O)[C@]3(O)C(=O)C(C(N)=O)=C(O)[C@@H](N(C)C)[C@@H]3[C@@H](O)[C@@H]21 [Doxycycline] |  |

Source: US20250134844A1, “THERAPEUTIC USE OF PLEUROMUTILINS” (Nabriva Therapeutics GmbH, priority 2022, published 2025)
